# Results: patent publication US20260216250A1, “Compositions and Methods for Treating a Neurologic Disease Using Dopaminergic Neurons with Enhanced Anti-inflammatory Activity” (Kenai Therapeutics Inc., priority 2023, published 2026)
# Experiments:
# rodent GSK3β homologs = conditions: cited from earlier work
# iPS cells = assay: Differentiation of iPS cells into FOXA2+/LMX1+ cells or dopamine neurons; assay type: cell-based, human; conditions: increased concentrations, e.g. 2 μM as compared to 0.2 μM
# Text: Disclosed is an in vitro method for preparing a cell composition comprising modified human cells that express both forkhead box protein A2 (FOXA2) and LIM homeobox transcription factor 1 (LMX1) (FOXA2^+/LMX1^+ cells) comprising culturing modified human pluripotent cells in the presence of the following signaling modulators: (a) a single inhibitor of Small Mothers Against Decapentaplegic (SMAD) signaling, (b) at least one activator of Sonic hedgehog (SHH) signaling, and (c) at least one activator of wingless (Wnt) signaling; and culturing said cells in the presence of said modulators for a period of time sufficient to provide a cell composition comprising said FOXA2^+/LMX1^+ cells. In some preferred embodiments, the LMX1 is LIM homeobox transcription factor 1 alpha (LMX1A). In some embodiments, the inhibitor of SMAD signaling is a BMP inhibitor such as, […]., at a concentration of from about 0.2 μM to about 4 μM, more preferably greater than 0.2 μM to about 4 μM, about 1 μM, 2 μM, 3 μM, 4 μM, or any range derivable therein), dorsomorphin, DMH-1, or noggin. […] In some embodiments, the BMP inhibitor is LDN-193189. The SMAD signaling inhibitor may be a TGFβ inhibitor (a TGFβ signaling pathway inhibitor) such as, for example, SB431542 (e.g., SB431542 present at a concentration of about 5-100, 20-60, 30-50 μM, or about 40 μM). […]
# Ago = Ago (Homo sapiens, UniProt Q9UKV8); conditions: cited from earlier work
# Sequence of Ago (Q9UKV8 whole entry): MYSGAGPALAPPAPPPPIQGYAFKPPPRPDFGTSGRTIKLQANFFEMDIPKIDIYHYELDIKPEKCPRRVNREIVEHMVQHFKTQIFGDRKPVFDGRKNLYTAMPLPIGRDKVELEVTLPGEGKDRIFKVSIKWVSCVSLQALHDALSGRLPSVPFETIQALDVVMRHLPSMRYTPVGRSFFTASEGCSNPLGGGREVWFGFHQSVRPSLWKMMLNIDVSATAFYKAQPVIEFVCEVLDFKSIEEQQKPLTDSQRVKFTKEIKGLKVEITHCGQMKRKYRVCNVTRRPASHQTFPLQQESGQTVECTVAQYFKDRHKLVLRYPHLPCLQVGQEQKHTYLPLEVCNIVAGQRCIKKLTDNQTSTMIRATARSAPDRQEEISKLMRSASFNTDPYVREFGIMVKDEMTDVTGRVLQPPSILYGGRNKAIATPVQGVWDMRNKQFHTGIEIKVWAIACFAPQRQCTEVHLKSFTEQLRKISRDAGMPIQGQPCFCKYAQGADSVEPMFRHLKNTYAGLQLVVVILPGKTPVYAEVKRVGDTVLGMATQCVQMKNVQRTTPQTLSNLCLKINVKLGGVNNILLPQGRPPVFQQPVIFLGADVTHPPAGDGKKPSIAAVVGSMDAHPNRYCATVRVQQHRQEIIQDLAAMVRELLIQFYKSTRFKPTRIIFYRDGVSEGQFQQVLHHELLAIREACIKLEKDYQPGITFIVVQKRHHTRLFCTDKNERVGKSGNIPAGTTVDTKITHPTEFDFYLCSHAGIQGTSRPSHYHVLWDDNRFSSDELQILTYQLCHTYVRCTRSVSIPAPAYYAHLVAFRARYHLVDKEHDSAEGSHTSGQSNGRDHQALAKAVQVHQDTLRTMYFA
compound,measurement,setting,value
"Cc1c[nH]c(-c2cnc(NCCNc3ccc(C#N)cn3)nc2-c2ccc(Cl)cc2Cl)n1 [CHIR99021, 6-(2-(4-(2,4-dichlorophenyl)-5-(4-methyl-1H-imidazol-2-yl)pyrimidin-2-ylamino)ethylamino) nicotinonitrile]",IC50 values against rodent GSK3β homologs,rodent GSK3β homologs,nanomolar
"c1ccc2c(-c3cnn4cc(-c5ccc(N6CCNCC6)cc5)cnc34)ccnc2c1 [LDN-193189, 4-(6-(4-(piperazin-1-yl)phenyl)pyrazolo[1,5-a]pyrimidin-3-yl) quinoline]",differentiation of iPS cells into FOXA2+/LMX1+ cells or dopamine neurons,iPS cells,improved differentiation
UUAAUGCUAAUCGUGAUAGGGGUU [miR-155-5p],Ago binding affinity of 5′ terminal UMP relative to the CMP nucleotide on the 5′ terminus of the miR-155-3p strand,Ago,approximately 20 times
